Test results reported in ChEMBL document CHEMBL2401691, “Synthesis and optimization of a novel series of HCV NS3 protease inhibitors: 4-arylproline analogs” (Bioorg Med Chem Lett, 2013).
Converted amounts (≈) assume the structure as drawn.

What was measured:
[1] = Half life in human liver microsomes; assay type: ADME, Microsome
[2] = Solubility of the compound after 24 hrs at pH 7.2; assay type: physicochemical; conditions: buffer
[3] = Half life in rat liver microsomes; assay type: ADME, Microsome
[4] = Ratio of drug level in rat liver to plasma at 5 mg/kg, po after 6 hrs; assay type: ADME, organism-based; set-up: dose 5 mg/kg, route oral
[5] = Half life in rat at 2 mg/kg, iv; assay type: ADME, organism-based; set-up: dose 2 mg/kg, route intravenous; conditions: in vivo
[6] = Drug uptake in rat liver at 5 mg/kg, po after 6 hrs; assay type: ADME, organism-based; set-up: dose 5 mg/kg, route oral; conditions: read-out: Drug uptake
[7] = Oral bioavailability in rat at 5 mg/kg; assay type: ADME, organism-based; conditions: in vivo
[8] = Plasma concentration in rat at 5 mg/kg, po after 6 hrs; assay type: ADME, organism-based; set-up: dose 5 mg/kg, route oral
[9] = AUC (0 to infinity) in rat at 5 mg/kg, po; assay type: ADME, organism-based; set-up: time infinity, dose 5 mg/kg, route oral; conditions: plasma
[10] = Cmax in rat at 5 mg/kg, po; assay type: ADME, organism-based; set-up: dose 5 mg/kg, route oral; conditions: in vivo
[11] = Total clearance in rat at 2 mg/kg, iv; assay type: ADME, organism-based; set-up: dose 2 mg/kg, route intravenous; conditions: in vivo
[12] = Volume of distribution at steady state in rat at 2 mg/kg, iv; assay type: ADME, organism-based; set-up: dose 2 mg/kg, route intravenous; conditions: in vivo, read-out: Vdss

Row | SMILES | half-life [1] [h] | solubility at 24 h [2] [µg/mL] | half-life [3] [h] | further results
1 | C=C[C@@H]1C[C@]1(NC(=O)[C@@H]1C[C@@](OC)(c2ccc(-c3nccs3)cc2)CN1C(=O)[C@@H](NC(=O)OC1CCCC1)C(C)(C)C)C(=O)NS(=O)(=O)C1CC1 | 1.1 | 452 (≈ 609 µM) | 1.1 | –
2 | C=C[C@@H]1C[C@]1(NC(=O)[C@@H]1C[C@@](OC)(c2ccc(-c3cc(C)ccc3OC)nc2)CN1C(=O)[C@@H](NC(=O)OC1CCCC1)C(C)(C)C)C(=O)NS(=O)(=O)C1CC1 | 1.4 | 310 (≈ 397 µM) | 1.42 | –
3 | C=C[C@@H]1C[C@]1(NC(=O)[C@@H]1C[C@@](OC)(c2ccc(-c3cccnc3)cc2)CN1C(=O)[C@@H](NC(=O)OC1CCCC1)C(C)(C)C)C(=O)NS(=O)(=O)C1CC1 | 0.883 | 940 (≈ 1280 µM) | 2.17 | –
4 | C=C[C@@H]1C[C@]1(NC(=O)[C@@H]1C[C@@](OC)(c2ccc(-c3nccs3)nc2)CN1C(=O)[C@@H](NC(=O)OC1CCCC1)C(C)(C)C)C(=O)NS(=O)(=O)C1CC1 | 2.28 | > 920 | – | –
5 | C=C[C@@H]1C[C@]1(NC(=O)[C@@H]1C[C@@](OC)(c2ccc(-c3cnn(C)c3)cc2)CN1C(=O)[C@@H](NC(=O)OC1CCCC1)C(C)(C)C)C(=O)NS(=O)(=O)C1CC1 | 1.37 | 540 (≈ 731 µM) | 2 | –
6 | C=C[C@@H]1C[C@]1(NC(=O)[C@@H]1C[C@@](OC)(c2ccc(-c3ccncc3)cc2)CN1C(=O)[C@@H](NC(=O)OC1CCCC1)C(C)(C)C)C(=O)NS(=O)(=O)C1CC1 | 1.32 | > 790 | 1.83 | –
7 | C=C[C@@H]1C[C@]1(NC(=O)[C@@H]1C[C@@](OC)(c2ccc(-c3ccccc3)nc2)CN1C(=O)[C@@H](NC(=O)OC1CCCC1)C(C)(C)C)C(=O)NS(=O)(=O)C1CC1 | 1.45 | 600 (≈ 815 µM) | 2 | –
8 | C=C[C@@H]1C[C@]1(NC(=O)[C@@H]1C[C@@](OC)(c2ccc(-c3cscn3)cc2)CN1C(=O)[C@@H](NC(=O)OC1CCCC1)C(C)(C)C)C(=O)NS(=O)(=O)C1CC1 | 0.9 | 540 (≈ 728 µM) | 3.67 | –

The next lines start with results.

Row | half-life [1] [h] | solubility at 24 h [2] [µg/mL] | half-life [3] [h] | SMILES | further results
9 | 0.717 | 36 (≈ 47.1 µM) | – | C=C[C@@H]1C[C@]1(NC(=O)[C@@H]1C[C@@](OC)(c2ccc(-c3ccccc3OC)cc2)CN1C(=O)[C@@H](NC(=O)OC1CCCC1)C(C)(C)C)C(=O)NS(=O)(=O)C1CC1 | –
10 | 0.85 | 17 (≈ 22.2 µM) | 1.4 | C=C[C@@H]1C[C@]1(NC(=O)[C@@H]1C[C@@](OC)(c2ccc(-c3ccc(OC)cc3)cc2)CN1C(=O)[C@@H](NC(=O)OC1CCCC1)C(C)(C)C)C(=O)NS(=O)(=O)C1CC1 | –
11 | 0.917 | – | – | C=C[C@@H]1C[C@]1(NC(=O)[C@@H]1C[C@@](OC)(c2ccc(-c3ccc(C)cn3)cc2)CN1C(=O)[C@@H](NC(=O)OC1CCCC1)C(C)(C)C)C(=O)NS(=O)(=O)C1CC1 | –
12 | 1.12 | 19 (≈ 24.8 µM) | – | C=C[C@@H]1C[C@]1(NC(=O)[C@@H]1C[C@@](OC)(c2ccc(-c3cccc(OC)c3)cc2)CN1C(=O)[C@@H](NC(=O)OC1CCCC1)C(C)(C)C)C(=O)NS(=O)(=O)C1CC1 | –
13 | 1.18 | 43 (≈ 58.5 µM) | 1.98 | C=C[C@@H]1C[C@]1(NC(=O)[C@@H]1C[C@@](OC)(c2ccc(-c3ccccc3)cc2)CN1C(=O)[C@@H](NC(=O)OC1CCCC1)C(C)(C)C)C(=O)NS(=O)(=O)C1CC1 | Kp at 6 h [4]: 45; half-life [5]: 2.94 h; concentration at 6 h [6]: 2300 nM; bioavailability [7]: 33%; concentration at 6 h [8]: 50 nM; AUC(0-inf) [9]: 1.32 µM·h; Cmax [10]: 320 nM; clearance [11]: 28 mL/min/kg; Vd [12]: 3.04 L/kg
